Data published in ChEMBL document CHEMBL1157539, “Thousands of chemical starting points for antimalarial lead identification” (Nature, 2010).

System: Plasmodium falciparum
Assay: GSK_TCMDC: Inhibition of Plasmodium falciparum 3D7 in whole erythrocytes, using parasite LDH activity as an index of growth.
Format: functional, organism-based

SMILES	XC50 (Plasmodium falciparum, 3D7) [nM]	XC50 [nM]
C=CCOc1ccc(C2C(C(=O)OC)=C(C)NC3=C2C(=O)c2ccccc23)cc1OC (stereo not drawn)	877	
Cc1cccc(OC2CCN(c3ncc(C(=O)NCCCN4CCCC4=O)cc3Cl)CC2)c1	183	
COC(=O)c1ccc2nc(-c3ccc(/C=C/C(=O)NCc4ccc(Cl)c(Cl)c4)cc3)[nH]c2c1	1340	
O=C(Nc1ccnc(N2CC3CC2CN3Cc2cccc(O)c2)c1)c1ccc(F)cc1 (stereo not drawn)	1240	
CCc1ccccc1N1CCN(CCCC(=O)c2ccc(NC(=O)c3cc(Cl)cc(Cl)c3)cc2)CC1	290	
COc1ccc(NC(=O)c2ccc(NC(=O)c3ccc(Cl)cc3)cc2)cc1N1CCN(C)CC1	849	
O=C(NCCN1CCCC1)c1cccc(-c2ccc(-c3nc4cc(F)ccc4[nH]3)s2)c1	1530	
O=C1c2cc(I)ccc2SC1c1ccccc1 (stereo not drawn)	817	
COc1cccc(CNC[C@@H](O)[C@H](Cc2ccccc2)NC(=O)c2cc(OC(C)C)cc(N3CCCCS3(=O)=O)c2)c1	730	
CC[C@H](C)CNC(=O)c1cccc(-c2cccc(CN3CCC(N4CCCC4)CC3)c2)n1	706	
CCC1(c2ccccc2)N=C(N)N(CCCc2ccccc2)C1=O (stereo not drawn)	891	
COc1cc2ccccc2cc1OCCCN1CCN(CC(c2ccc(F)cc2)N2CCN(C(C)C)CC2)CC1 (stereo not drawn)	749	
Cc1cccc2nc(-c3cccc(-c4cccc(CN5CCC(CO)CC5)c4)c3)[nH]c12	724	
Cc1ccc2c(O)c([N+](=O)[O-])c(O)nc2c1	422	
CC(C)=CCc1c(-c2ccc(O)cc2O)oc2c3c(cc(O)c2c1=O)OC(C)(C)C=C3 [MORUSIN]	977	
Cc1cccc(CCCNC(=O)CN(c2cccc(C(F)(F)F)c2)S(=O)(=O)c2ccc(C(F)(F)F)cc2)c1	684	
Cc1cc(=NN=Cc2ccc(F)cc2)c2cc(C(F)(F)F)ccc2[nH]1	228	
O=C(Cn1cc(C(F)(F)F)cc(Cl)c1=O)N1CCN(S(=O)(=O)c2ccc(Cl)cc2)CC1	897	
O=C(c1ccc(F)c(F)c1)N1CCOC(CCN2CCC(c3ccccc3)CC2)(c2ccc(Cl)c(Cl)c2)C1 (stereo not drawn)	1040	
CCc1ccc(O)c(-c2cc(C(=O)Nc3ccc(OC)c(Cl)c3)[nH]n2)c1	870	
COc1cc(Br)c(NC(=O)Nc2ccc(C(F)(F)F)c(O[C@@H]3CCN(C)C3)c2)cc1OC	626	
COc1cc(C=CC(=O)NC2CCC(CN3CCC(c4c[nH]c5ccccc45)CC3)CC2)cc(OC)c1 (stereo not drawn)	807	
N=C(NCCCc1ccccc1)c1cccc(C(=N)NCCCc2ccccc2)n1	1380	
COc1cc(C)c(C(O)CNC(C)CCc2ccccc2)cc1C (stereo not drawn)	730	
Oc1cc2c(cc1CN1CCN(Cc3ccccc3)CC1)CCC2	721	

SMILES	XC50 (Plasmodium falciparum, 3D7) [nM]	XC50 [nM]
COCCN1CCN(Cc2cccc(-c3ccc(-c4nc5ccccc5[nH]4)cc3)c2)CC1	761	
CCCCCCCN(Cc1ccc(OC(C)(C)C(=O)OCC)cc1)C(=O)Cc1ccc(F)cc1F	1030	
CCCCCCOc1ccc(C(=O)NCCCC2CCCN(CCCCCNC(=O)C=Cc3ccc(Cl)c(Cl)c3)C2)cc1 (stereo not drawn)	703	
c1ccc(Nc2nc(-c3ccccn3)cs2)nc1	1150	
O=C(NC1CCN(CC2(c3ccccc3F)CCCC2)CC1)c1cc[nH]n1	997	
Cc1ccc(S(=O)(=O)N2CCN(C(=O)c3cc(-c4cccs4)n[nH]3)CC2)c(C)c1	866	
NC1=NC(c2ccccc2)N(c2ccc(Cl)c(Cl)c2)C(N)=N1 (stereo not drawn)	14.6	
CC(C)(CNCc1ccc(OC(F)(F)F)cc1)c1nc(-c2ccc(Cl)c(O)c2)c(-c2ccncc2)[nH]1	545	
COc1ccc2nccc([C@@H](O)CN3CCC(NCC(=O)Nc4cc(F)cc(F)c4)CC3)c2n1	912	
CCC(O)c1ccc(Br)cc1NC(=O)c1cccc(Cl)c1 (stereo not drawn)	1020	
CCC(=O)N(c1ccccc1)C1CCN(CCCC(NC(=O)c2cc(C(F)(F)F)cc(C(F)(F)F)c2)c2ccc(Cl)c(Cl)c2)CC1 (stereo not drawn)	803	
Cc1ccc(NC(=O)Nc2ccc(I)c(OCCN(C)C)c2)cc1Cl	564	
CC1CC(C)CN(CCCNc2ccc(C(=O)Nc3ccc(C(F)(F)F)cc3)cc2[N+](=O)[O-])C1 (stereo not drawn)	203	
O=C(NCc1ccccc1)NC1CCN(c2ccnc3cc(Cl)ccc23)C1 (stereo not drawn)	158	
O=C1CCCN1CCCNCc1cccc(-c2ccc(-c3nc4cc(C(F)(F)F)ccc4[nH]3)s2)c1	448	
Cc1cccc2nc(-c3ccc(-c4ccc(CN5CCN(c6ccc(C#N)cn6)CC5)cc4)s3)[nH]c12	1130	
Cc1cc(N[C@@H](Cc2ccccc2)C(=O)Nc2ccccc2)nc(NCCc2ccccn2)n1	874	
COc1ccc(CN2CCCC(N3CC4(OC3=O)c3ccccc3-c3ccccc34)C2)c(O)c1 (stereo not drawn)	873	
N#Cc1c(Cl)cccc1Oc1ccc(S(=O)(=O)NC2CCC(CN3CCC(c4c[nH]c5ccccc45)CC3)CC2)cc1 (stereo not drawn)	1070	714
O=C(NC1CCN(CC2(c3ccc(Cl)cc3)CCC2)CC1)c1cscn1	535	
Cc1cccc(C(=O)Nc2ccnc(N3CCC(N(C)Cc4ccc(C#N)cc4)CC3)c2)c1	912	
OCCN1CCN(C(=S)NC2CCCCC2)CC1	1100	
COc1ccc(CNc2ncnc3c2[nH]c2ccc(F)cc23)cc1	980	
Cc1cc(Nc2ncc(C#N)c(Nc3ccccc3C(N)=O)n2)ccc1N1CCN(C)CC1	8.63	
O=C(/C=C/c1ccc(Cl)c(Cl)c1)NC1CCC(N2CCC(c3c[nH]c4ccc(O)cc34)CC2)CC1 (stereo not drawn)	921	

SMILES	XC50 (Plasmodium falciparum, 3D7) [nM]	XC50 [nM]
O=c1cc(NCCCNCc2cc(F)cc(C(F)(F)F)c2)[nH]c2ccccc12	1200	
O=C(c1cc(C(=O)Nc2ccccc2F)c(=O)n(-c2ccccc2F)c1)c1cc(Cl)ccc1O	705	
CCc1ccc(OCCCON2C(=N)N=C(N)NC2(C)C)cc1	3.2	
CCc1nnc2sc(-c3cccc(NC(=O)c4ccc(OC)c(Cl)c4)c3)nn12	1140	
CC(C)c1ccc(C2CCN(CCCCNC(=O)c3ccc(NC(=O)c4ccc(C(F)(F)F)cc4)cc3)CC2)c(O)c1	579	
COc1ccc(Cl)cc1NC(=O)C(C)Nc1ccc(-c2ccccc2)cc1 (stereo not drawn)	556	
Cc1[nH]n(-c2cccc(Cl)c2)c(=O)c1-c1ccc(Cl)cc1	929	
CC1CCNc2ccc(Cc3cnc(N)nc3N)cc21 (stereo not drawn)	1040	
COc1cc(-c2ccccc2)ccc1C(=O)Nc1ccc2c(c1)N(C)CCC2	325	
CCCNCCc1ccc(NS(=O)(=O)c2cccc(-c3ccc(Cl)cc3)c2)cc1	975	
O=[N+]([O-])c1ccc(Oc2ccccc2CNCC2CCN(CC3CCCCC3)CC2)cc1	903	
COc1cc2c(cc1O)[C@@H]1[C@H](O)[C@@H](O)C=C3CCN(C2)[C@H]31 [PSEUDOLYCORINE]	991	
COc1cc(NC(=O)Nc2ccnc3ccccc23)cc(OC)c1	469	
COc1ccc2nccc(NC(=O)C3CCC(NCc4cnc(SC)c([N+](=O)[O-])c4)CC3)c2n1 (stereo not drawn)	927	
Cc1cc(=NN=Cc2ccccc2F)c2cc(F)ccc2[nH]1	299	
COc1ccc(C(=O)N[C@@H](CC(C)C)C(=O)N[C@H](/C=N/NC(=O)c2ccccc2)CCc2ccccc2)cc1OCCN1CCOCC1	173	
Clc1ccc(Nc2nc(-c3ccccn3)cs2)nc1	774	
CS(=O)(=O)N(c1ccccc1)c1cc(C(=O)N[C@@H](Cc2ccccc2)[C@H](O)CNC2CCCCC2)cc(N2CCCC2=O)c1	78.1	
CC(=O)N(C)C1CCN(Cc2cccc(-c3ccc(-c4nc5cc(C(F)(F)F)ccc5[nH]4)cc3)c2)C1 (stereo not drawn)	563	
COc1cc(Nc2nccc(N3CCC(NC(=O)c4cc5ccccc5s4)C3)n2)cc(OC)c1OC (stereo not drawn)	786	
O=C(Cn1c(CCc2cccc(F)c2F)cc(=O)c2ccccc21)N(Cc1ccc(-c2ccc(C(F)(F)F)cc2)cc1)C1CCN(CCO)CC1	1320	
Nc1nc(N)c2nc(C3CC=CCC3)c(N)nc2n1 (stereo not drawn)	162	
OCCN1CCN(Cc2ccc(-c3cccc(-c4nc5cc(F)ccc5[nH]4)c3)cc2)CC1	608	
O=C(N[C@@H](Cc1ccccc1)CN1CCC(Oc2ccc(F)cc2)CC1)c1ccc(OCCCN2CCCCC2)cc1	885	
COc1cc(NCCCNCC2c3ccccc3Oc3ccccc32)nc2ccccc12	331	

SMILES	XC50 (Plasmodium falciparum, 3D7) [nM]	XC50 [nM]
CCCCCCCC/C=C\CCCCCCCC(=O)NCc1ccc(O)c(OC)c1 [OLVANIL]	402	
CS(=O)(=O)c1ccc(OCCCN(Cc2ccccc2C(F)(F)F)c2ccc(C#N)c(C(F)(F)F)c2)cc1	1020	
CC1(CCc2ccccc2)N=C(N)N(Cc2ccccc2)C(=O)C1c1ccc(Cl)c(Cl)c1 (stereo not drawn)	805	
CN(C)c1ccc(NC2=NC(N)=NC(C)(C)N2)cc1	223	
Cc1cccc2nc(-c3ccc(-c4cccc(NC(=O)C(C)CN5CCN(C)CC5)c4)cc3)[nH]c12 (stereo not drawn)	739	
COc1ccc(CC2(c3ccc(F)cc3)N=C(N)N(CCCc3cccnc3)C2=O)cc1 (stereo not drawn)	668	
Cc1cccc2nc(-c3ccc(-c4ccc(CNCCCN5CCCC5=O)cc4)cc3)[nH]c12	632	
c1ccc2ncc(CNCCCCCCCCNCc3cnc4ccccc4c3)cc2c1	846	
COc1cccc2c(NN=Cc3ccccc3Cl)cc(C)nc12	211	
c1ccc(CN2CCC(Nc3ccc(-c4c[nH]nc4-c4ccccn4)nc3)CC2)cc1	799	
O=C(NC1CCN(c2ccnc3cc(Cl)ccc23)C1)c1ccc(C(F)(F)F)cc1 (stereo not drawn)	143	
CCCCCCN1CCC(NCc2ccc(Cl)cc2)CC1	854	
Cc1cc(=NN=Cc2ccccc2Cl)c2cc(C(F)(F)F)ccc2[nH]1	858	
N=C1SC(=Cc2cn[nH]c2-c2ccc(F)cc2)C(=O)N1c1nccs1	225	
Cn1nc(-c2ccc(CN[C@@H]3CCc4ccc(O)cc43)cc2)c2cnc(NCCCN3CCCC3)nc21	797	
COc1ccc(C(C)Nc2nc(N)c3cc(OC)c(OC)cc3n2)cc1 (stereo not drawn)	936	
COc1ccc(-c2cccc(NC(=O)c3cccc(C#N)c3)c2)cc1CN1CCCN(C)CC1	190	
CCCn1cnc2cc(C(=O)Nc3ccc(-c4cccc(CN(C)C)c4)cc3)ccc2c1=O	928	
COc1ccc(NC(=O)/C=C/c2ccccc2Cl)cc1OCCN1CCC(N2CCCC2)CC1	786	
CCc1ccccc1-c1csc(C(=O)NCC2CCN(Cc3ccc(C(C)(C)C)cc3)C2)c1 (stereo not drawn)	1150	
Cc1cc(N[C@@H](Cc2ccccc2)C(=O)NCc2cccs2)nc(NCCc2cccnc2)n1	1010	
CC(C)c1ccc(NC(=O)NCC2CCCN(CCCCCNC(=O)/C=C/c3ccc(Cl)c(Cl)c3)C2)cc1 (stereo not drawn)	806	
